Two compounds from PMC11973282, “RAS70 peptide targets multiforme glioblastoma by binding to the plasma membrane heat shock protein HSP70” (Frontiers in Oncology, 2025) can be followed below.

Series [1] has as its system normal brain tissues. Put plainly: Ex vivo staining of normal brain tissue from patients with epilepsy. Also on record: species or system human. As to conditions: tissues obtained intraoperatively from patients with epilepsy (n=2). As to the method:
For evaluation of targeting properties of RAS70 peptide in the non-tumorous brain tissues patient-derived samples obtained intraoperatively from patients with drug-resistant epilepsy underwent temporal resection (n=2) were employed.
Small pieces of brain tissue (50-100 mm³) were taken from patients or animals during surgery. The resulting material was washed three times in a PBS solution at room temperature and then stained, gently shaking, for 1 hour with one of the following combinations of dyes: a mixture of Hoechst 33342 (0.1 μg/mL) [Invitrogen, USA], monoclonal antibodies against Hsp70 conjugated with FITC, and RAS70 conjugated with Cy5; a mixture of Hoechst 33342 (0.1 μg/mL), LumiTracker® Mito Green FM [Lumiprobe, Russia], and TKD/NGL-RGD/RAS70 conjugated with sCy5. […] Hoechst 33342 fluorescence was excited with a 405 nm laser and recorded in the range 410 to 550 nm; Hsp70-FITC and Mito Green fluorescence were excited with a 488 nm laser and recorded in the range 495 to 550 nm; and Cy5 fluorescence was excited with a 633 nm laser and recorded in the range 635 to 750 nm. […]
To detect peptide localization, the biopsy material was additionally stained with a mitochondrial marker MitoGreen and anti-Hsp70 antibodies (SPA-810). […] Additionally, we assessed the depth of the RAS70-sCy3/sCy5 penetration into the tumor tissues […]. […]

Series [2] deals with U251 cells (lower chamber; HUVEC and astrocytes barrier).
Procedure: (§1) Then, a peptide labeled with a fluorescent label was introduced into the upper chamber and co-incubation was carried out for 12, 24 and 36 hours. At the end of the incubation, the tumor cells were washed with cold phosphate-buffered saline (PBS) and fixed with a 4% solution of paraformaldehyde in PBS. Nuclei were stained with 4’,6-diamidino-2-phenylindole (DAPI). Fluorescent images were obtained using a Leica TCS SP8 confocal microscope (Leica, Germany). To avoid possible cross-interference of different fluorochromes, images for DAPI and FITC were obtained using a sequential sample scanning method. Fluorescently labeled cells were counted in the lower chamber. To estimate the mHsp70-mediated uptake of chaperone-targeted peptides tumor cells prior to incubation were pre-treated with anti-Hsp70 monoclonal antibodies SPA-810 (1:250, Stressgen) and SPA-815 (1:250 Stressgen). To exclude integrin (αvβ3, αvβ5)-mediated penetration of RAS70 tumor cells prior to incubation with peptides were pre-treated with anti- αvβ3 (1:200 clone LM609, ZMS1030, Sigma-Aldrich, USA), -αvβ5 (1:200 clone P1F6, MAB1961Z, Sigma-Aldrich, USA) monoclonal antibodies.
(§2) Then, a peptide labeled with a fluorescent dye (FITC) was introduced into the upper chamber and co-incubation was carried out for 12, 24 and 36 hours. At the end of the incubation, the tumor cells were washed with cold phosphate-buffered saline (PBS) and fixed with a 4% solution of paraformaldehyde in PBS. Nuclei were stained with 4’,6-diamidino-2-phenylindole (DAPI).
(§3) Data from 3 independent experiments are presented as M ± SE. […] Data from 3 independent experiments are presented as M ± SE. ** p < 0.01 for testing mean expression levels.
In series [3] the test system is GL261 glioma. Details: species or system C57BL/6 mice. As to conditions: mouse, in vivo. As to the method: The animals were anesthetized with a combination of Zoletil 100 (Virbac, France) and Rometar (Bioveta, Czech Republic). Rat glioma C6 (2х10^6) and mice glioma GL261 (1х10^6) cells were injected intracranially into the area of nucl. caudatus dexter.
For evaluation of the tumor retention of the RAS70 peptide in GL261 glioma-bearing mice the animals following tumor cells injection were randomly assigned to the study groups (6 animals each) as follows (1): control group – PBS i.v. injection via tail vein (100 μL) (2); i.v. administration of […] peptide (100 μl, 2.5 mg/kg) (3); i.v. administration of NGL-RGD-sCy7.5 peptide (100 μl, 2.5 mg/kg) (4); i.v. administration of TKD-sCy7.5 peptide (100 μl, 2.5 mg/kg) (5); i.v. administration of […] peptide (100 μl, 2.5 mg/kg). Following clinical manifestation of the brain tumor progression in animals (3–4 weeks after intracranial tumor cells injection) peptides were i.v. injected and the peptides biodistribution was assessed employing IVIS in vivo Imaging System (PerkinElmer, USA). […]
Processing of the obtained luminescence images was performed using Living Image 4.7.4 firmware. The luminescence signals were read from the color maps of the obtained images by selecting the ROI contour (region of interest). […]

In series [4] the test system is C6 cells (lower chamber; HUVEC and astrocytes barrier). Put plainly: Transwell BBB model, peptide passage and accumulation in tumor cells. As to conditions: transwell BBB model: HUVEC (5×10^5) and astrocytes (5×10^5) in upper chamber, C6 (1×10^4) in lower chamber; FITC-labeled peptide; 36 hours; confocal microscopy count; M ± SE, 3 independent experiments.
Procedure: as §1, §2, §3

`CC(C)C[C@H](NC(=O)[C@H](CC(C)C)NC(=O)[C@H](CC(N)=O)NC(=O)[C@H](CC(N)=O)NC(=O)[C@H](CC(=O)O)NC(=O)[C@H](CCCCN)NC(=O)[C@@H](N)[C@@H](C)O)C(=O)NCC(=O)N[C@@H](CCCNC(=N)N)C(=O)N[C@@H](Cc1ccccc1)C(=O)N[C@@H](CCC(=O)O)C(=O)N[C@@H](CC(C)C)C(=O)N[C@@H](CO)C(=O)NCC(=O)NCCC(=O)N[C@@H](CCCNC(=N)N)C(=O)NCC(=O)N[C@@H](CC(=O)O)C(=O)O` [RAS70]: the “localization in normal brain tissue” value in series [1] was “no tissue-specific localization of RAS70 was detected”. Further, the “fluorescently labeled tumor cells in the lower chamber” value in series [2] is 603 ± 87 cells. The “presence in normal brain tissue of animals” value in series [3] is reported as “non-specific presence of the RAS70 in blood vessel but not in normal brain cells”. For the same compound, in series [3] (iv), the “rank order of organ accumulation (biodistribution)” value is given as “kidney > liver > small intestine > lungs”.

Regarding `CC(C)C[C@H](NC(=O)[C@H](CC(C)C)NC(=O)[C@H](CC(N)=O)NC(=O)[C@H](CC(N)=O)NC(=O)[C@H](CC(=O)O)NC(=O)[C@H](CCCCN)NC(=O)[C@@H](N)[C@@H](C)O)C(=O)NCC(=O)N[C@@H](CCCNC(=N)N)C(=O)N[C@@H](Cc1ccccc1)C(=O)N[C@@H](CCC(=O)O)C(=O)N[C@@H](CC(C)C)C(=O)N[C@@H](CO)C(=O)NCC(=O)O` [TKD], in series [4], the “fluorescently labeled tumor cells in the lower chamber” value is recorded as 301 ± 35 cells.
